Legend:
[1] = Basic (simple static) model prediction of clinical DUT-KET interaction; parameters: species or system human; settings: clinical prediction from HLM data, R = 1 + Imax,u / Ki
Method: Supplementary Materials: In Vitro and In Vivo
Assessment of Metabolic Drug Interaction Potential of Dutasteride with Ketoconazole
Table S1. Previous literatures on bioanalytical methods for DUT using HPLC system coupled with ultraviolet-visible (UV/Vis) and tandem mass (MS/MS) detector.
Detector Matrix Sample Sample Preparation Mobile Phase Conc. Range Validation Ref.
LC-MS/MS Human plasma 300 µL LLE Isocratic 0.1-25 ng/mL Full
LC-MS/MS Human plasma 500 µL LLE Gradient 0.1-25 ng/mL Full
LC-MS/MS Human plasma 500 µL SPE Gradient 1-100 ng/mL Full
LC-MS/MS Human plasma 500 µL SPE Isocratic 0.1-10 ng/mL Full
LC-MS/MS Human plasma 900 µL LLE Isocratic 0.5-50 ng/mL Full
LC-MS/MS Human plasma 1000 µL LLE Gradient 0.05-4 ng/mL Full
LC-MS/MS Human Serum 2000 µL LLE NR 0.025-2.5 ng/mL Partial
LC-MS/MS Human Urine 5000 µL SPE Gradient NR Partial
LC-MS/MS Rat plasma 100 µL LLE Isocratic 1-500 ng/mL Partial
LC-MS/MS Rat plasma 100 µL LLE Isocratic 5-400 ng/mL Partial
HPLC-UV Rat blood 100 µL Deproteinization Gradient NR Partial […]
where the R is the predicted ratio of the AUC of DUT in the presence and absence of KET, the Imax,u is the maximum unbound plasma concentration of KET, and the Ki is the unbound inhibition constant of KET determined in vitro. Since IC50 only was determined in this study, it was converted to Ki using the following equation for competitive inhibition. […]

[2] = NADPH-dependent metabolism (disappearance) of DUT in human liver microsomes; format: in vitro ADME; settings: HLM
Method: (§1) In vitro metabolism studies in RLM and HLM were conducted as previously reported with slight modifications. To investigate the NADPH-dependent metabolism (via phase I enzymes including CYPs) of DUT in RLM and HLM, the disappearance of DUT at various concentrations ranging from 1 to 100 μM in the presence of NADPH was determined in RLM and HLM. The substrate (DUT) concentration ([S]; μM) versus the initial metabolic rate (V; pmol/min/mg protein) data were interpreted based on the Michaelis–Menten kinetics, and relevant parameters were estimated by nonlinear regression analysis (GraphPad Prism ver. 5.01; GraphPad Software, San Diego, CA, USA) based on the following Michaelis–Menten equation: V = Vmax × [S]/Km + [S] where Vmax and Km are the maximal metabolic rate and Michaelis–Menten constant, respectively. The intrinsic metabolic clearance (CLint) was calculated by dividing Vmax by Km. The unbound Km (Km,u) was calculated as the Km multiplied by the unbound fraction in microsomes (fu,mic). The unbound CLint (CLint,u) was calculated as the CLint divided by the fu,mic.
(§2) To investigate the metabolic interaction potential between DUT and KET, the disappearance of DUT (5 μM) in RLM and HLM was determined under the absence and presence of KET at various concentrations ranging from 1 to 5000 nM. A microsomal reaction mixture was prepared as follows (total volume: 0.2 mL): 1 mM NADPH, 10 mM MgCl2, substrate (DUT), and inhibitor (KET), RLM or HLM (1 mg/mL), and 50 mM phosphate buffer. […] The unbound fractions of DUT in rat plasma, RLM, human plasma, and HLM were measured using a rapid equilibrium dialysis (RED) device (Thermo Fisher Scientific, Inc., Waltham, MA, USA) as described in a previous study. […] The fraction unbound was calculated as the ratio of the drug concentrations in the “buffer” chamber to those in the “sample” chamber. The blood-to-plasma concentration ratio (RB) of DUT was determined as described previously. […] The concentrations of DUT in the plasma sample were determined by the validated HPLC analysis.

[3] = Unbound fraction by rapid equilibrium dialysis, HLM; format: in vitro ADME, human
Method: (§3) To investigate the metabolic interaction potential between DUT and KET, the disappearance of DUT (5 μM) in RLM and HLM was determined under the absence and presence of KET at various concentrations ranging from 1 to 5000 nM. A microsomal reaction mixture was prepared as follows (total volume: 0.2 mL): 1 mM NADPH, 10 mM MgCl2, substrate (DUT), and inhibitor (KET), RLM or HLM (1 mg/mL), and 50 mM phosphate buffer. At 0 and 90 min after starting the metabolic reaction, a 50 μL aliquot of microsomal incubation mixture was sampled and immediately transferred into a clean 1.5 mL microcentrifuge tube containing 100 μL cold ACN with an internal standard (celecoxib at 400 ng/mL) to stop the metabolic reaction. After vortex mixing and centrifugation at 15,000× g for 10 min, a 100 μL aliquot of the supernatant was stored at −80 °C. The unbound fractions of DUT in rat plasma, RLM, human plasma, and HLM were measured using a rapid equilibrium dialysis (RED) device (Thermo Fisher Scientific, Inc., Waltham, MA, USA) as described in a previous study. […] The fraction unbound was calculated as the ratio of the drug concentrations in the “buffer” chamber to those in the “sample” chamber. The blood-to-plasma concentration ratio (RB) of DUT was determined as described previously. […] The concentrations of DUT in the plasma sample were determined by the validated HPLC analysis.

[4] = Previous and preliminary rat studies of intravenous DUT; format: in vivo; settings: rats, preliminary study
[5] = Unbound fraction by rapid equilibrium dialysis, human plasma; format: in vitro ADME
Method: as §3

[6] = cited from earlier work
[7] = Unbound fraction by rapid equilibrium dialysis, RLM; format: in vitro ADME, rat
Method: as §3

[8] = NADPH-dependent metabolism (disappearance) of DUT in rat liver microsomes; format: in vitro ADME; settings: RLM
Method: as §1, §2

## C[C@]12C=CC(=O)N[C@@H]1CC[C@@H]1[C@@H]2CC[C@]2(C)[C@@H](C(=O)Nc3cc(C(F)(F)F)ccc3C(F)(F)F)CC[C@@H]12 [DUT, Dutasteride]
[1]
  R, predicted ratio of the AUC of DUT in the presence and absence of KET: 2.88
[2]; DUT 1 to 100 μM, NADPH
  Vmax: 47.7 ± 6.3 pmol/min/mg protein
[2]; human, human liver microsomes, DUT 1 to 100 μM, NADPH
  Km: 51.6 ± 7.3 µM
[2]; human, human liver microsomes, Vmax divided by Km
  microsomal CLint: 0.928 ± 0.069 µL/min/mg
[3]; DUT and KET 5 μM, n = 5
  fraction of unbound DUT, presence versus absence of KET: no significant differences
[3]; human, human liver microsomes, DUT 5 μM, RED device
  fraction unbound at 5 μM: 0.091
[4]
  renal excretion of DUT in the unchanged form: less than 1 % of intravenously administered dose
[5]; DUT 5 μM, RED device
  fraction unbound at 5 μM: 0.0078
[5]; DUT and KET 5 μM, n = 5
  fraction of unbound DUT, presence versus absence of KET: no significant differences
[6]; healthy humans, 0.5 mg DUT once-daily for more than 6 months
  steady-state serum DUT concentration, median: 38 ng/mL
[6]; humans, after reaching a steady state
  terminal half-life: approximately 5 weeks
[6]; humans
  unchanged DUT excreted in the urine: trace amounts
[7]; RLM, DUT and KET 5 μM, n = 5
  fraction of unbound DUT, presence versus absence of KET: no significant differences
[7]; Sprague-Dawley, rat, rat liver microsomes, RLM 1 mg/mL, DUT 5 μM, RED device
  fraction unbound at 5 μM: 0.0856
[8]; DUT 1 to 100 μM, NADPH
  Vmax: 114 ± 10 pmol/min/mg protein
[8]; Sprague-Dawley, rat, rat liver microsomes, Vmax divided by Km
  microsomal CLint: 3.45 ± 0.37 µL/min/mg
[8]; rat, rat liver microsomes, DUT 1 to 100 μM, NADPH
  Km: 33.3 ± 3.6 µM

— PMC6956158, “In Vitro and In Vivo Assessment of Metabolic Drug Interaction Potential of Dutasteride with Ketoconazole” (Pharmaceutics, 2019)
